± gives the expanded uncertainty stated by the source.
Conditions: 351.2 K; Liquid; Ebulliometric method (Recirculating still)

vapor or sublimation pressure: 101.3 ± 3 kPa
SMILES: CCO [ethanol]
